# Laboratory results reported in patent US12257246B2, “Composition of 2,4,6-trifluoro-n-[6-(1-methyl-piperidin-4-carbonyl)-pyridin-2-yl[-benzamide” (CoLucid Pharmaceuticals, Inc., priority 2009, dated 2025).
# Columns and labels:
# [1] = system: neuronal protein extravasation; experiment: Protein extravasation assay (trigeminal ganglion stimulation); format: in vivo, rats or guinea pigs; details: intravenous
# Description: Harlan Sprague-Dawley rats (225-325 g) or guinea pigs from Charles River Laboratories (225-325 g) were anesthetized with sodium pentobarbital intraperitoneally (65 mg/kg or 45 mg/kg respectively) and placed in a stereotaxic frame (David Kopf Instruments) with the incisor bar set at −3.5 mm for rats or −4.0 mm for guinea pigs. Following a midline sagital scalp incision, two pairs of bilateral holes were drilled through the skull (6 mm posterially, 2.0 and 4.0 mm laterally in rats; 4 mm posteriorly and 3.2 and 5.2 mm laterally in guinea pigs, all coordinates referenced to bregma). Pairs of stainless steel stimulating electrodes, insulated except at the ends (Rhodes Medical Systems, Inc.), were lowered through the holes in both hemispheres to a depth of 9 mm (rats) or 10.5 mm (guinea pigs) from dura. […]
# A fluorescence microscope (Zeiss) equipped with a grating monchromator and a spectrophotometer was used to quantify the amount of Evans Blue dye in each sample. An excitation wavelength of approximately 535 nm was utilized and the emission intensity at 600 nm was determined. […] This facilitated the computer-controlled movement of the stage with fluorescence measurements at 25 points (500 μm steps) on each dural sample. The mean and standard deviation of the measurements were determined by the computer. […]
# rabbit saphenous vein [2] = details: concentrations up to 0.1 mM; cited from earlier work
# rabbit saphenous vein [3] = experiment: Rabbit saphenous vein contraction
# [4] = biological target: T1, Human 5-HT1F receptor transfected NIH3T3 cells (Homo sapiens, UniProt P30939); experiment: Inhibition of forskolin stimulated cAMP formation; format: cell-based
# T1 construct: expressed in transfected cells; host or cells: NIH3T3 cells
# T1 sequence (P30939 1-366): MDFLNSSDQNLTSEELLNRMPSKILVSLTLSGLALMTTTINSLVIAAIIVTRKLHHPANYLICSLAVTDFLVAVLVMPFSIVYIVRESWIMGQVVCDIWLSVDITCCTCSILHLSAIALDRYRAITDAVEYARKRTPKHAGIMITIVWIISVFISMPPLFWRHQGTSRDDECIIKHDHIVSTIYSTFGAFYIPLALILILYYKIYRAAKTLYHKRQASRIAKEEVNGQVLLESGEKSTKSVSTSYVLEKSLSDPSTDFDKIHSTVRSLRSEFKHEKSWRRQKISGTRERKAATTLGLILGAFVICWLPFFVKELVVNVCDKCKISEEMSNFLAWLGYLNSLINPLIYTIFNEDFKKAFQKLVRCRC
# Description: As was reported by R. L. Weinshank, et al., WO93/14201, the 5-HT1F receptor is functionally coupled to a G-protein as measured by the ability of serotonin and serotonergic drugs to inhibit forskolin stimulated cAMP production in NIH3T3 cells transfected with the 5-HT1F receptor. Adenylate cyclase activity was determined using standard techniques. A maximal effect is achieved by serotonin. An Emax is determined by dividing the inhibition of a test compound by the maximal effect and determining a percent inhibition. N. Adham, et al., supra; R. L. Weinshank, et al., Proceedings of the National Academy of Sciences (USA), 89:3630-3634, 1992; and the references cited therein.
# Human 5-HT1F receptor transfected NIH3T3 cells (estimated Bmax from one point competition studies=488 fmol/mg of protein) were incubated in DMEM, 5 mM theophylline, 10 mM HEPES (4-[2-hydroxyethyl]-1-piperazineethanesulfonic acid) and 10 μM pargyline for 20 minutes at 37° C., 5% CO2. Drug dose-effect curves were then conducted by adding 6 different final concentrations of drug, followed immediately by the addition of forskolin (10 μM). Subsequently, the cells were incubated for an additional 10 minutes at 37° C., 5% CO2. The medium was aspirated and the reaction was stopped by the addition of 100 mM HCl. […] Radioactivity was quantified using a Packard COBRA Auto Gamma counter, equipped with data reduction software.
# [5] = system: other 5-HT1 receptor subtypes (5-HT1A, 5-HT1B, 5-HT1D, 5-HT1E); details: cited from earlier work
# [6] = system: healthy male and female subjects; experiment: Oral safety and tolerability, Study 1 and Study 2; format: in vivo, human; design: Subjects with Nausea: dose or concentration left out as unconfirmed
# [7] = Study 2 Part 1, 200 mg tablet (N = 28)
# [8] = Study 2 Part 1, 200 mg tablet (N = 29)
# [9] = Study 2 Part 2, 50 mg tablet (N = 28)
# [10] = Study 2 Part 2, 400 mg tablet (N = 28)
structure (smiles),measurement,setting,value
"CN1CCC(C(=O)c2cccc(NC(=O)c3c(F)cc(F)cc3F)n2)CC1 [Compound I, 2,4,6-trifluoro-N-[6-(1-methyl-piperidin-4-ylcarbonyl)-pyridin-2-yl]-benzamide]",inhibition of neuronal protein extravasation,[1],significantly inhibit neuronal protein extravasation
same,constriction of rabbit saphenous vein,rabbit saphenous vein [2],did not constrict
same,vasoconstrictive activity,rabbit saphenous vein [3],not be significantly vasoconstrictive
same,functional activity in cAMP assay,[4],agonist of the 5-HT1F receptor
same,solubility,Solubility (statement),high solubility
same,affinity higher for 5-HT1F receptors than for other 5-HT1 receptor subtypes,[5],more than 450 fold
same,Subjects with Blurred vision,[6]; [7],0 n
same,Subjects with Feeling hot,[6]; [7],0 n
same,Subjects with Palpitations,[6]; [7],0 n
same,Subjects with Blurred vision,[6]; [8],0 n
same,Subjects with Diarrhea,[6]; [8],0 n
same,Subjects with Feeling hot,[6]; [8],0 n
same,Subjects with Headache,[6]; [8],0 n
same,Subjects with Palpitations,[6]; [8],0 n
same,Subjects with Blurred vision,[6]; [9],0 n
same,Subjects with Diarrhea,[6]; [9],0 n
same,Subjects with Feeling hot,[6]; [9],0 n
same,Subjects with Headache,[6]; [9],0 n
same,Subjects with Diarrhea,[6]; [10],0 n
same,Subjects with Palpitations,[6]; [10],0 n
same,Subjects with Nausea,"[6]; Study 2 Part 2, tablet (N = 28)",0 n
same,"fatigue, females",[6]; after the 400 mg oral dose,50%
same,"fatigue, males",[6]; after the 400 mg oral dose,21%
same,tolerability,[6]; all oral doses of solution and tablet,well tolerated
same,tolerability,[6]; doses above 400 mg administered orally,not well tolerated
